In paper PMC11705089 (Nucleic Acids Research, 2025):
Positions count from the first letter of the chain named.

Columns and labels:
[1] = target: T1, DgoR (WT DgoR-6XHis) (Escherichia coli, UniProt P31460); assay: label-free microscale thermophoresis; assay type: binding
T1 sequence (P31460 1-229): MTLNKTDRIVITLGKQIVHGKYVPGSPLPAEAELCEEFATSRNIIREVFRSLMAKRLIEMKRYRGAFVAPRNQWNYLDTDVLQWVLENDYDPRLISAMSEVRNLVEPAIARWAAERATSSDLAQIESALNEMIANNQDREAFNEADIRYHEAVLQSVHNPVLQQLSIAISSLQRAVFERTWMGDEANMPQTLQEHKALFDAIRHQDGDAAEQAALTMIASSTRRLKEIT

[2] = target: T2, DgoR (WT DgoR-6XHis) (Escherichia coli, UniProt P31460, A97V); assay: label-free microscale thermophoresis; assay type: binding
T2 sequence (P31460 1-229 A97V): T1 sequence (P31460 1-229) with A97V

[3] = target: T3, DgoR (WT DgoR-6XHis) (Escherichia coli, UniProt P31460, S171L); assay: label-free microscale thermophoresis; assay type: binding
T3 sequence (P31460 1-229 S171L): T1 sequence (P31460 1-229) with S171L

[4] = target: T4, DgoR (WT DgoR-6XHis) (Escherichia coli, UniProt P31460, M188I); assay: label-free microscale thermophoresis; assay type: binding
T4 sequence (P31460 1-229 M188I): T1 sequence (P31460 1-229) with M188I

[5] = target: DgoR-6XHis (wild-type DgoR, transcriptional repressor of D-galactonate metabolism in Escherichia coli) (Escherichia coli) (UniProt P31460); assay: SEC

Compound	Kd [1] [µM]	Kd [2] [µM]	Kd [3] [µM]	Kd [4] [µM]	stoichiometry N [5]
O=C(O)[C@H](O)[C@@H](O)[C@@H](O)[C@H](O)CO [D-galactonate]	8.4 ± 1.3	3.3 ± 0.3	20.1 ± 0.6	11.3 ± 0.9	–
DgoR-6XHis (wild-type DgoR, transcriptional repressor of D-galactonate metabolism in Escherichia coli) (from UniProt P31460 1-229) (natural protein)	–	–	–	–	2
